Measured values published in patent publication US20230295131A1, “INHIBITORS OF RHO-ASSOCIATED COILED-COIL KINASE” (Angion Biomedica Corp., priority 2020, published 2023).
Read-outs that look alike come from different tables or passages of the source.

Legend:
[1] = biological target: T1, ROCK2 (Homo sapiens, UniProt O75116); assay: ROCK2 kinase binding affinity, DiscoverX KINOMEscan KdELECT; conditions: for ROCK2 Selectivity: selectivity for ROCK2 over ROCK1 from Kd
T1 construct: T7 phage fusion (kinase-tagged phage) or DNA tag for qPCR detection
Outline: (§1)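 Competition binding of DNA- or phage-tagged kinase to immobilised ligand beads, with bound kinase quantified by qPCR of eluates.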

[2] = biological target: T2, ROCK1 (Homo sapiens, UniProt Q13464); assay: ROCK1 kinase binding affinity, DiscoverX KINOMEscan KdELECT; conditions: 11-point 3-fold dilution
T2 construct: T7 phage fusion (kinase-tagged phage) or DNA tag for qPCR detection
Outline: as §1

[3] = system: Hepatic stellate cells; assay: Gel contraction assay (TGFβ1-induced); format: cell-based; conditions: test compound at 100 μM, 1 hour pretreatment, TGFβ1 24 hours
Protocol: Hepatic stellate cells were plated onto collagen coated plates and pretreated with test compound (at 100 μM) for 1 hour. TGFβ1 is then added for 24 hours, and images are taken.

[4] = system: chronic hepatitis C infection; conditions: cited from earlier work
[5] = system: murine autoimmune disease; conditions: KD025 administration; cited from earlier work
[6] = system: fibroblasts; conditions: fibroblasts treated with KD025; cited from earlier work
[7] = 12-16 weeks of dosing in healthy volunteers and patients; cited from earlier work
[8] = system: HCC; conditions: HCC patients at advanced stage; cited from earlier work
[9] = KINOMEscan KdELECT, 11-point 3-fold dilution, read-out: Kd (μM) ROCK2

T2 sequence (Q13464 whole entry, the tested form may be a part): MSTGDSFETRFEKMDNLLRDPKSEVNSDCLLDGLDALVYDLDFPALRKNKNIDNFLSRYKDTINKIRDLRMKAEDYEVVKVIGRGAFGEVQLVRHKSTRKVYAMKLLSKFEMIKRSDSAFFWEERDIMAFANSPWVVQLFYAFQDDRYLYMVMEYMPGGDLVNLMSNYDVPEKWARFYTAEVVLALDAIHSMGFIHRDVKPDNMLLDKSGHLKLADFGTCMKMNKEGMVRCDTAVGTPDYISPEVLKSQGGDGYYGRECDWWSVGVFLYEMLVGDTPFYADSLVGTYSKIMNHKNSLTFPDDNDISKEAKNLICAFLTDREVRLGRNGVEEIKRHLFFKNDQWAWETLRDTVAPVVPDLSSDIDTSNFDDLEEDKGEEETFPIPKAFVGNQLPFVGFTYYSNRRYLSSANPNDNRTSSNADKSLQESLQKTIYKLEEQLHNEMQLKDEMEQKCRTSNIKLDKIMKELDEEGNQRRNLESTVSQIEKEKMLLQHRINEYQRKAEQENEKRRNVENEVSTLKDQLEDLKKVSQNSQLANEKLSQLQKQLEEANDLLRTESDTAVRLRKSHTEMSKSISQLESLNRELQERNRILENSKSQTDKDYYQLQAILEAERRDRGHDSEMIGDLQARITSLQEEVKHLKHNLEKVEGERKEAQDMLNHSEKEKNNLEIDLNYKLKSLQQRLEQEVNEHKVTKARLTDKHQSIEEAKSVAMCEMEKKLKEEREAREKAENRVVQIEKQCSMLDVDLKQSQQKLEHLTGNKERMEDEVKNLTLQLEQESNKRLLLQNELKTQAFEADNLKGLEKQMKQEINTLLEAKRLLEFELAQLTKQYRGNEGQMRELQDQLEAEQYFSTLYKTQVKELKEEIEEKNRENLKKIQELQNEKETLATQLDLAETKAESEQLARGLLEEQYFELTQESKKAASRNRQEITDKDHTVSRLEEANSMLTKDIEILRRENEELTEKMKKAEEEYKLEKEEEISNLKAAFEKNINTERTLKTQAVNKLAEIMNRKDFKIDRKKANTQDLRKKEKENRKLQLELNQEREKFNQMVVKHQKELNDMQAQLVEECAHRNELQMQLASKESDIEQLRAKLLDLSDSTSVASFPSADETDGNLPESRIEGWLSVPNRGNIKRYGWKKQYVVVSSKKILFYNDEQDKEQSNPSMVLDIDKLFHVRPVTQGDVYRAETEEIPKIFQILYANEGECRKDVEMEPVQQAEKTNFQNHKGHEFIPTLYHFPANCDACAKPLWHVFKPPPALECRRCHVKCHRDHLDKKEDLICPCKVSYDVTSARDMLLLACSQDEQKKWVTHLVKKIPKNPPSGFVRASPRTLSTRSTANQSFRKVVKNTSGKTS
T1 sequence (O75116 whole entry, the tested form may be a part): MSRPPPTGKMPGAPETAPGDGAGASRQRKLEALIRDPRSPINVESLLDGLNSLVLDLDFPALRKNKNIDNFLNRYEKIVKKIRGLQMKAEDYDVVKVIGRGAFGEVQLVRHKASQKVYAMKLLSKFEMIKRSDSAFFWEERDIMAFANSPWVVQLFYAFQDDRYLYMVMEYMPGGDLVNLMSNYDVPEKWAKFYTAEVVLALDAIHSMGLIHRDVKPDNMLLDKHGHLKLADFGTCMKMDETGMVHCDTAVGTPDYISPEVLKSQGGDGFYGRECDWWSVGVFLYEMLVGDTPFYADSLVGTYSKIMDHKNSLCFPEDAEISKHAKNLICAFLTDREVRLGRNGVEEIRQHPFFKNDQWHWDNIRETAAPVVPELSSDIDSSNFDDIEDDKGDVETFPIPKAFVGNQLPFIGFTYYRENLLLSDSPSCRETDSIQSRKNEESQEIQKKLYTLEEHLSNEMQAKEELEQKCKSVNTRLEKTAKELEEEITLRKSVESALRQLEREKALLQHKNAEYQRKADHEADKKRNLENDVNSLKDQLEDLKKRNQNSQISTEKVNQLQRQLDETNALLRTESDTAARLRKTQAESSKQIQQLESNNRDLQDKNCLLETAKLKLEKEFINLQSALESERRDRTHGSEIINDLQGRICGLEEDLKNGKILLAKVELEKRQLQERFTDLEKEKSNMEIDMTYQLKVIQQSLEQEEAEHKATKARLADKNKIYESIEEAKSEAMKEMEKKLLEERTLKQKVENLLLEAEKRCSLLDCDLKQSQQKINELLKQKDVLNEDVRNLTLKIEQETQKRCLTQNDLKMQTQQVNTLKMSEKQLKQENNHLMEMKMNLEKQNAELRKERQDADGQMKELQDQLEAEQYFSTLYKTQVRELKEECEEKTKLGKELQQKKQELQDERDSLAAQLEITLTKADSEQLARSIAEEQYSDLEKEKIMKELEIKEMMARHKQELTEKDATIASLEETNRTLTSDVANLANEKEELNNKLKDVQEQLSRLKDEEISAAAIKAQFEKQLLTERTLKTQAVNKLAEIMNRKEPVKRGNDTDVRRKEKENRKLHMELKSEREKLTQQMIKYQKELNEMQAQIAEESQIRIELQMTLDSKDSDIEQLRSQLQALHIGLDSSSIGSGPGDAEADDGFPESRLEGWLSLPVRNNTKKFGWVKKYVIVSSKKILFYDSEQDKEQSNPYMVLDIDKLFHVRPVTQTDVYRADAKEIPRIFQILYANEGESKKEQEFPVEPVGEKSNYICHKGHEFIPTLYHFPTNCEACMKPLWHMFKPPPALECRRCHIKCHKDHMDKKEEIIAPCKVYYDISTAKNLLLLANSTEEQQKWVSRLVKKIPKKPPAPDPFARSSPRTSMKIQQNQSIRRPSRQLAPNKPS

Molecule	Kd [1, 9] [µM]	ROCK2 Selectivity [1]	Kd [2] [µM]	also measured
O[C@H]1CC[C@@H](Nc2nccc(-c3nccc(C#Cc4ccc5[nH]nc(F)c5c4)n3)n2)CC1 [Ex. 93, (1s,4s)-4-((4-((3-Fluoro-1H-Indazol-5-yl)ethynyl)-[2,4′-bipyrimidin]-2′-yl)amino)cyclohexanol]	< 0.01	**** (>500-fold selectivity for ROCK2)	1 to 9.9	TGFβ1-induced gel contraction in hepatic stellate cells [3]: significantly attenuated
interferon				response to antiviral therapy ([4]; in combination with ribavirin): ~50%; response to antiviral therapy ([4]; used alone): ~20%
CC(C)NC(=O)COc1cccc(-c2nc(Nc3ccc4[nH]ncc4c3)c3ccccc3n2)c1 [KD025]				expression of pro-inflammatory, fibrosis-linked cytokines [5]: decreased; murine autoimmune disease [5]: mitigated; expression of profibrotic mRNA including CTGF [6]: decreased; hemodynamic or other side effects [7]: no hemodynamic or other side effects
Fc1cc(CNc2nccc(-c3nccc(C#Cc4ccc5[nH]nc(F)c5c4)n3)n2)ccn1 [Ex. 61, 4-((3-Fluoro-1H-indazol-5-yl)ethynyl)-N-((2-fluoropyridin-4-yl)methyl)-[2,4′-bipyrimidin]-2′-amine]	0.01 to 0.099	*** (151 to 500-fold selectivity for ROCK2)	10 to 100	
Fc1cccc(F)c1CNc1nccc(-c2nccc(C#Cc3ccc4[nH]ncc4c3)n2)n1 [Ex. 27, 4-((1H-Indazol-5-yl)ethynyl)-N-(2,6-difluorobenzyl)-[2,4′-bipyrimidin]-2′-amine]	0.1 to 0.99	** (50 to 150-fold selectivity for ROCK2)	10 to 100	
CC1(O)CN(C(=O)CNc2nccc(-c3nccc(C#Cc4ccc5[nH]ncc5c4)n3)n2)C1 [Ex. 84, 2-((4-((1H-Indazol-5-yl)ethynyl)-[2,4′-bipyrimidin]-2′-yl)amino)-1-(3-hydroxy-3-methylazetidin-1-yl)ethanone]	0.01 to 0.099	* (<50-fold selectivity for ROCK2)	1 to 9.9	
C(#Cc1ccnc(-c2ccnc(NCc3ncc[nH]3)n2)n1)c1ccc2[nH]ncc2c1 [Ex. 23, N-((1H-Imidazol-2-yl)methyl)-4-((1H-indazol-5-yl)ethynyl)-[2,4′-bipyrimidin]-2′-amine]	0.01 to 0.099	** (50 to 150-fold selectivity for ROCK2)	1 to 9.9	
O=C(CNc1nccc(-c2nccc(C#Cc3ccc4[nH]ncc4c3)n2)n1)N1CCOCC1 [Ex. 41, 2-((4-((1H-Indazol-5-yl)ethynyl)-[2,4′-bipyrimidin]-2′-yl)amino)-1-morpholinoethanone]	< 0.01	*** (151 to 500-fold selectivity for ROCK2)	1 to 9.9	
CN(C)C(=O)CNc1nccc(-c2nccc(C#Cc3ccc4[nH]nc(F)c4c3)n2)n1 [Ex. 46, 2-((4-((3-Fluoro-1H-indazol-5-yl)ethynyl)-[2,4′-bipyrimidin]-2′-yl)amino)-N,N-dimethylacetamide]	0.01 to 0.099	** (50 to 150-fold selectivity for ROCK2)	1 to 9.9	
C(#Cc1ccnc(-c2ccnc(N[C@@H]3CCOC3)n2)n1)c1ccc2[nH]ncc2c1 [Ex. 59, (R)-4-((1H-Indazol-5-yl)ethynyl)-N-(tetrahydrofuran-3-yl)-[2,4′-bipyrimidin]-2′-amine]	< 0.01	*** (151 to 500-fold selectivity for ROCK2)	1 to 9.9	
Fc1ncccc1CNc1nccc(-c2nccc(C#Cc3ccc4[nH]ncc4c3)n2)n1 [Ex. 6, 4-((1H-Indazol-5-yl)ethynyl)-N-((2-fluoropyridin-3-yl)methyl)-[2,4′-bipyrimidin]-2′-amine]	< 0.01	* (<50-fold selectivity for ROCK2)	0.01 to 0.099	
Fc1cccc(CNc2nccc(-c3nccc(C#Cc4ccc5[nH]ncc5c4)n3)n2)c1F [Ex. 26, 4-((1H-Indazol-5-yl)ethynyl)-N-(2,3-difluorobenzyl)-[2,4′-bipyrimidin]-2′-amine]	0.01 to 0.099	** (50 to 150-fold selectivity for ROCK2)	1 to 9.9	
CC1(CNc2nccc(-c3nccc(C#Cc4ccc5[nH]ncc5c4)n3)n2)CCCO1 (centres unmarked) [Ex. 53, 4-((1H-Indazol-5-yl)ethynyl)-N-((2-methyltetrahydrofuran-2-yl)methyl)-[2,4′-bipyrimidin]-2′-amine]	0.01 to 0.099	** (50 to 150-fold selectivity for ROCK2)	1 to 9.9	
O[C@H]1CC[C@@H](Nc2nccc(-c3nccc(C#Cc4ccc5[nH]cnc5c4)n3)n2)CC1 [Ex. 95, (1s,4s)-4-((4-((1H-Benzo[d]imidazol-5-yl)ethynyl)-[2,4′-bipyrimidin]-2′-yl)amino)cyclohexanol]		*** (151 to 500-fold selectivity for ROCK2)	10 to 100	Kd [1]: 0.01 to 0.099 µM
CC1(C)CCC(CNc2nccc(-c3nccc(C#Cc4ccc5[nH]ncc5c4)n3)n2)O1 (centres unmarked) [Ex. 68, 4-((1H-Indazol-5-yl)ethynyl)-N-((5,5-dimethyltetrahydrofuran-2-yl)methyl)-[2,4′-bipyrimidin]-2′-amine]	< 0.01	*** (151 to 500-fold selectivity for ROCK2)	0.1 to 0.99	
O[C@@H]1CC[C@H](Nc2nccc(-c3nccc(C#Cc4ccc5[nH]ncc5c4)n3)n2)C1 [Ex. 74, (1R,3S)-3-((4-((1H-indazol-5-yl)ethynyl)-[2,4′-bipyrimidin]-2′-yl)amino)cyclopentanol]	< 0.01	**** (>500-fold selectivity for ROCK2)	0.1 to 0.99	
CNC(=O)c1cc(Oc2ccc(NC(=O)Nc3ccc(Cl)c(C(F)(F)F)c3)cc2)ccn1 [sorafenib]				extension of median survival [8]: less than 3 months
C(#Cc1ccnc(-c2ccnc(NC[C@H]3CCCO3)n2)n1)c1ccc2[nH]ncc2c1 [Ex. 34, (R)-4-((1H-Indazol-5-yl)ethynyl)-N-((tetrahydrofuran-2-yl)methyl)-[2,4′-bipyrimidin]-2′-amine]	< 0.01	*** (151 to 500-fold selectivity for ROCK2)	0.1 to 0.99	
Cc1n[nH]c2ccc(C#Cc3ccnc(-c4ccnc(NCc5ccc(F)cn5)n4)n3)cc12 [Ex. 71, N-((5-Fluoropyridin-2-yl)methyl)-4-((3-methyl-1H-indazol-5-yl)ethynyl)-[2,4′-bipyrimidin]-2′-amine]	0.1 to 0.99	* (<50-fold selectivity for ROCK2)	0.1 to 0.99	
O=C(O)[C@H]1CC[C@H](Nc2nccc(-c3nccc(C#Cc4ccc5[nH]ncc5c4)n3)n2)CC1 [Ex. 87, (1r,4r)-4-((4-((1H-Indazol-5-yl)ethynyl)-[2,4′-bipyrimidin]-2′-yl)amino)cyclohexanecarboxylic acid]	0.1 to 0.99	* (<50-fold selectivity for ROCK2)	1 to 9.9	
